Measurements as given in patent US10799522B2, “Compositions and methods relating to galectin detection” (Wayne State University, priority 2015, dated 2020).

Test system: orthotopic human breast carcinoma xenograft (MCF10DCIS)
Assay: dynamic PET/CT imaging, pharmacokinetics and biodistribution in tumor-bearing mice
Format: in vivo, immunedeficient nu/nu mice
Conditions: 10 mg/kg i.v. 15 min prior to [^18F]FPDTG; at 60 min post injection
Description: A single (unilateral) orthotopic breast carcinoma xenograft was established in immunedeficient nu/nu mice by injection of human breast ductal carcinoma in situ cells (MCF10DCIS) in Matrigel into one of the upper mammary fat pad.
Tumor-bearing mice (˜20-25 g) were anesthetized using inhalation of 2% isoflurane in oxygen, and their body temperature maintained at 38° C. by a heating pad with a feedback temperature control. […] Dynamic PET images were acquired in list-mode and reconstructed using OSEM algorithm at multiple time frames post radiotracer administration (0-2, 2-4, 4-6, 6-8, 8-10, 10-20, 20-30, 30-40, 40-50, 50-60 min). Thereafter, while still fixed to the positioning bed, the mice were moved with the bed into the gantry of INVEON SPECT/CT (Siemens), and CT images were acquired over the whole body area for attenuation correction of PET images and for production of PET/CT images. PET/CT fusion images were generated and analyzed in a similar manner as when studying rats.

OC[C@H]1O[C@@H](S[C@@H]2O[C@H](CO)[C@H](O)[C@H](n3cc(-c4cccc(F)c4)nn3)[C@H]2O)[C@H](O)[C@@H](n2cc(-c3cccc(F)c3)nn2)[C@H]1O [FPTDG, bis-{3-deoxy-3-[4-(3-fluorophenyl)-1H-1,2,3-triazol-1-yl]-β-D-galactopyranosyl)sulfane, reference compound]
blockade of the radiotracer uptake and retention in DCIS lesion: > 90%
